Assay: Phase 1 study: safety and tolerability (TEAEs, NCI CTCAE v5.0)
Procedure: The study employed an open-label, 3+3 design, with the option of adding backfill patients to each cohort cleared and deemed safe. […] Tumor responses were assessed every 2 cycles using RECIST v1.1 criteria. […] The study also involves an ongoing dose escalation study where participants receive 100 mg, 200 mg, 300 mg, 400 mg, and 600 mg once daily (QD) dose levels.
Safety was assessed through the analysis of the reported incidence of treatment-emergent AEs. Treatment-emergent AEs are those with an onset on or after the initiation of therapy and will be graded according to NCI CTCAE Version 5.0. Other safety endpoints, including laboratory results, vital signs, and ECG findings, were summarized for all patients in the Safety set.

## O=C1CC[C@H](N2Cc3cc(N4CCN(CC5CCN(c6ccc([C@@H]7c8ccc(O)cc8OC[C@@H]7c7ccccc7)cc6F)CC5)CC4)ccc3C2=O)C(=O)N1 [compound (1-g), (S)-3-(5-(4-((1-(2-fluoro-4-((3S,4R)-7-hydroxy-3-phenylchroman-4-yl)phenyl)piperidin-4-yl)methyl)piperazin-1-yl)-1-oxoisoindolin-2-yl)piperidine-2,6-dione]
200 mg QD (N = 12)
  TEAE: Urinary Tract Infection: 1 (8.3) n (%)
  TEAE: Vaginal Haemorrhage: 0 n (%)
  TEAE: Vomiting: 1 (8.3) n (%)
  related TEAE: Alopecia: 0 n (%)
  related TEAE: Arthralgia: 1 (8.3) n (%)
  related TEAE: Constipation: 0 n (%)
  related TEAE: Diarrhea: 0 n (%)
  related TEAE: Dysgeusia: 0 n (%)
  related TEAE: Eructation: 0 n (%)
  related TEAE: Fatigue: 1 (8.3) n (%)
  related TEAE: Flatulence: 0 n (%)
  related TEAE: Hot Flush: 1 (8.3) n (%)
  related TEAE: Hyperhidrosis: 0 n (%)
  related TEAE: Nail Disorder: 0 n (%)
  related TEAE: Nausea: 0 n (%)
  related TEAE: Neutrophil Count Decreased: 0 n (%)
  related TEAE: Platelet Count Decreased: 0 n (%)
  related TEAE: Tremor: 0 n (%)
  related TEAE: Vomiting: 0 n (%)
300 mg QD (N = 11)
  Patients with Any Compound (1-g) related TEAE: 5 (45.5) n (%)
  Patients with Any TEAE: 8 (72.7) n (%)
  TEAE: Abdominal Distension: 1 (9.1) n (%)
  TEAE: Abdominal Pain: 0 n (%)
  TEAE: Acute Kidney Injury: 1 (9.1) n (%)
  TEAE: Adrenal Insufficiency: 0 n (%)
  TEAE: Alopecia: 0 n (%)
  TEAE: Anaemia: 1 (9.1) n (%)
  TEAE: Anxiety: 1 (9.1) n (%)
  TEAE: Arthralgia: 0 n (%)
  TEAE: Axillary Vein Thrombosis: 0 n (%)
  TEAE: Back Pain: 1 (9.1) n (%)
  TEAE: Basal Cell Carcinoma: 0 n (%)
  TEAE: Breast Pain: 0 n (%)
  TEAE: Confusional State: 0 n (%)
  TEAE: Constipation: 1 (9.1) n (%)
  TEAE: Cough: 0 n (%)
  TEAE: Covid-19 Pneumonia: 0 n (%)
  TEAE: Dehydration: 1 (9.1) n (%)
  TEAE: Diarrhoea: 1 (9.1) n (%)
  TEAE: Dizziness: 1 (9.1) n (%)
  TEAE: Dysgeusia: 0 n (%)
  TEAE: Dyspepsia: 0 n (%)
  TEAE: Dyspnoea: 1 (9.1) n (%)
  TEAE: Dysuria: 1 (9.1) n (%)
  TEAE: Eructation: 0 n (%)
  TEAE: Fall: 0 n (%)
  TEAE: Fatigue: 1 (9.1) n (%)
  TEAE: Flatulence: 1 (9.1) n (%)
  TEAE: Fracture: 0 n (%)
  TEAE: Fungal Infection: 1 (9.1) n (%)
  TEAE: Haematoma: 1 (9.1) n (%)
  TEAE: Hot Flush: 2 (18.2) n (%)
  TEAE: Hyperglycaemia: 0 n (%)
  TEAE: Hyperhidrosis: 0 n (%)
  TEAE: Hypokalaemia: 1 (9.1) n (%)
  TEAE: Hypotension: 0 n (%)
  TEAE: Influenza Like Illness: 0 n (%)
  TEAE: Insomnia: 0 n (%)
  TEAE: Lower Respiratory Tract Congestion: 0 n (%)
  TEAE: Lymphocyte Count Decreased: 0 n (%)
  TEAE: Muscle Spasm: 0 n (%)
  TEAE: Muscular Weakness: 0 n (%)
  TEAE: Musculoskeletal Stiffness: 0 n (%)
  TEAE: Nail Disorder: 0 n (%)
  TEAE: Nasal Congestion: 0 n (%)
  TEAE: Nausea: 4 (36.4) n (%)
  TEAE: Neutrophil Count Decreased: 1 (9.1) n (%)
  TEAE: Oedema Peripheral: 1 (9.1) n (%)
  TEAE: Ophthalmic Migraine: 0 n (%)
  TEAE: Oral Pain: 1 (9.1) n (%)
  TEAE: Pain In Extremity: 0 n (%)
  TEAE: Pharyngitis: 0 n (%)
  TEAE: Platelet Count Decreased: 1 (9.1) n (%)
  TEAE: Pleural Effusion: 1 (9.1) n (%)
  TEAE: Pneumonia: 0 n (%)
  TEAE: Productive Cough: 0 n (%)
  TEAE: Rash Maculo-Papular: 0 n (%)
  TEAE: Rhinitis Allergic: 1 (9.1) n (%)
  TEAE: Rib Fracture: 0 n (%)
  TEAE: Seizure: 0 n (%)
  TEAE: Sepsis: 0 n (%)
  TEAE: Tremor: 1 (9.1) n (%)
  TEAE: Upper Respiratory Tract Infection: 1 (9.1) n (%)
  TEAE: Urinary Tract Infection: 1 (9.1) n (%)
  TEAE: Vaginal Haemorrhage: 1 (9.1) n (%)
  TEAE: Vomiting: 1 (9.1) n (%)
  related TEAE: Alopecia: 0 n (%)
  related TEAE: Arthralgia: 0 n (%)
  related TEAE: Constipation: 1 (9.1) n (%)
  related TEAE: Diarrhea: 1 (9.1) n (%)
  related TEAE: Dysgeusia: 0 n (%)
  related TEAE: Eructation: 0 n (%)
  related TEAE: Fatigue: 1 (9.1) n (%)
  related TEAE: Flatulence: 0 n (%)
  related TEAE: Hot Flush: 2 (18.2) n (%)
  related TEAE: Hyperhidrosis: 0 n (%)
  related TEAE: Nail Disorder: 0 n (%)
  related TEAE: Nausea: 3 (27.3) n (%)
  related TEAE: Neutrophil Count Decreased: 0 n (%)
  related TEAE: Platelet Count Decreased: 0 n (%)
  related TEAE: Tremor: 0 n (%)
  related TEAE: Vomiting: 1 (9.1) n (%)
400 mg QD (N = 6)
  Patients with Any Compound (1-g) related TEAE: 3 (50.0) n (%)
  Patients with Any TEAE: 4 (66.7) n (%)
  TEAE: Abdominal Distension: 0 n (%)
  TEAE: Abdominal Pain: 0 n (%)
  TEAE: Acute Kidney Injury: 0 n (%)
  TEAE: Adrenal Insufficiency: 0 n (%)
  TEAE: Alopecia: 1 (16.7) n (%)
  TEAE: Anaemia: 0 n (%)
  TEAE: Anxiety: 0 n (%)
  TEAE: Arthralgia: 0 n (%)
  TEAE: Axillary Vein Thrombosis: 0 n (%)
  TEAE: Back Pain: 0 n (%)
  TEAE: Basal Cell Carcinoma: 0 n (%)
  TEAE: Breast Pain: 0 n (%)
  TEAE: Confusional State: 0 n (%)
  TEAE: Constipation: 1 (16.7) n (%)
  TEAE: Cough: 0 n (%)
  TEAE: Covid-19 Pneumonia: 0 n (%)
  TEAE: Dehydration: 0 n (%)
  TEAE: Diarrhoea: 1 (16.7) n (%)
  TEAE: Dizziness: 0 n (%)
  TEAE: Dysgeusia: 1 (16.7) n (%)
  TEAE: Dyspepsia: 0 n (%)
  TEAE: Dyspnoea: 1 (16.7) n (%)
  TEAE: Dysuria: 0 n (%)
  TEAE: Eructation: 1 (16.7) n (%)
  TEAE: Fall: 0 n (%)
  TEAE: Fatigue: 2 (33.3) n (%)
  TEAE: Flatulence: 1 (16.7) n (%)
  TEAE: Fracture: 0 n (%)
  TEAE: Fungal Infection: 0 n (%)
  TEAE: Haematoma: 0 n (%)
  TEAE: Hot Flush: 0 n (%)
  TEAE: Hyperglycaemia: 0 n (%)
  TEAE: Hyperhidrosis: 0 n (%)
  TEAE: Hypokalaemia: 0 n (%)
  TEAE: Hypotension: 1 (16.7) n (%)
  TEAE: Influenza Like Illness: 0 n (%)
  TEAE: Insomnia: 1 (16.7) n (%)
  TEAE: Lower Respiratory Tract Congestion: 0 n (%)
  TEAE: Lymphocyte Count Decreased: 0 n (%)
  TEAE: Muscle Spasm: 1 (16.7) n (%)
  TEAE: Muscular Weakness: 1 (16.7) n (%)
  TEAE: Musculoskeletal Stiffness: 0 n (%)
  TEAE: Nail Disorder: 1 (16.7) n (%)
  TEAE: Nasal Congestion: 0 n (%)
